Test results: ChEMBL document CHEMBL1150977, “A quantitative analysis of kinase inhibitor selectivity” (Nat Biotechnol, 2008)

Assays:
[1] = molecular target: Glycogen synthase kinase-3 beta (Homo sapiens, UniProt P49841)
[2] = molecular target: Mast/stem cell growth factor receptor Kit (Homo sapiens, UniProt P10721, V559D)
[3] = molecular target: T1, Serine/threonine-protein kinase 17B (Homo sapiens, UniProt O94768)
T1 sequence (O94768 whole entry): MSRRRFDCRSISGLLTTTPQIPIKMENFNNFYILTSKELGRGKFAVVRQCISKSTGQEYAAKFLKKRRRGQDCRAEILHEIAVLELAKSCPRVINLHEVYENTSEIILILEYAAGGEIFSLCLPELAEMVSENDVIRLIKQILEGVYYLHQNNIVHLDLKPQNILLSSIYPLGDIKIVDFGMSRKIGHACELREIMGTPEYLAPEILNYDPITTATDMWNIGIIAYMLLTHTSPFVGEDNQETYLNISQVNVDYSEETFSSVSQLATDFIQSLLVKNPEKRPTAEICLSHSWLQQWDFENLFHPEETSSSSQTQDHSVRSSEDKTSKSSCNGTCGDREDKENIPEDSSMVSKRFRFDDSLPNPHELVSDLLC

[4] = molecular target: T2, Non-receptor tyrosine-protein kinase TNK1 (Homo sapiens, UniProt Q13470)
T2 sequence (Q13470 whole entry): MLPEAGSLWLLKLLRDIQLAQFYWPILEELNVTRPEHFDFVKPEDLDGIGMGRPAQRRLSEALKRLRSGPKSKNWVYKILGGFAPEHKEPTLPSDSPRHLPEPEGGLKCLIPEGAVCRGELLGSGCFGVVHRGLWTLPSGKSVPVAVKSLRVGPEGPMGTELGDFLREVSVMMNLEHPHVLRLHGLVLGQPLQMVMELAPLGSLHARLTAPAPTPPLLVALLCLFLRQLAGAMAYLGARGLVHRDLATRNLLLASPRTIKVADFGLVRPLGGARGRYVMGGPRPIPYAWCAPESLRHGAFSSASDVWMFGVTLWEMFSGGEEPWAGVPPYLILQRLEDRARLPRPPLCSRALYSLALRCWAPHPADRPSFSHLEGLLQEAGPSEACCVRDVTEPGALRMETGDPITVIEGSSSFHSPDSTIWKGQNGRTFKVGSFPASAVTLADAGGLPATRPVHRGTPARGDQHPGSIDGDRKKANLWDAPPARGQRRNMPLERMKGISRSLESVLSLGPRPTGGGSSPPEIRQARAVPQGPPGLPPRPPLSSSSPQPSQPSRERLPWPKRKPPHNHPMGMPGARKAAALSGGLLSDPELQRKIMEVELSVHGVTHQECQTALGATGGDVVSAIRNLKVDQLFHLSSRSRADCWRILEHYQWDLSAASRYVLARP

[5] = molecular target: Serine/threonine-protein kinase 10 (Homo sapiens, UniProt O94804)
[6] = molecular target: High affinity nerve growth factor receptor (Homo sapiens, UniProt P04629)
[7] = molecular target: MAP kinase-interacting serine/threonine-protein kinase 1 (Homo sapiens, UniProt Q9BUB5)
Ephrin type-A receptor 7 = Ephrin type-A receptor 7 (Homo sapiens, UniProt Q15375)
SRSF protein kinase 2 = SRSF protein kinase 2 (Homo sapiens, UniProt P78362)
[8] = molecular target: T3, Serine/threonine-protein kinase Chk1 (Homo sapiens, UniProt O14757)
T3 sequence (O14757 whole entry): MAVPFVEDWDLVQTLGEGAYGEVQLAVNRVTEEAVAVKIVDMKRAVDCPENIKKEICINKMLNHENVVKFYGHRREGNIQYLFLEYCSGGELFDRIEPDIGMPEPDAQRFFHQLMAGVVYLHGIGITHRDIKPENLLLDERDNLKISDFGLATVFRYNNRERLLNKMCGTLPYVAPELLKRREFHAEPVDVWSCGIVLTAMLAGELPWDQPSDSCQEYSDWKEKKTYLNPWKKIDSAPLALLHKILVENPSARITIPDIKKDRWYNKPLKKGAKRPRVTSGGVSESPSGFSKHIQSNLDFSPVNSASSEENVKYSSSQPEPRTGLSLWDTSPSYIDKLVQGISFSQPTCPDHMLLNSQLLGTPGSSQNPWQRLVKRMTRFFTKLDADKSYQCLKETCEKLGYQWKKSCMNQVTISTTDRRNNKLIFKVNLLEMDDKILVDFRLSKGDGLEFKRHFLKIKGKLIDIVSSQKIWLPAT

[9] = molecular target: Phosphatidylinositol 4,5-bisphosphate 3-kinase catalytic subunit alpha isoform (Homo sapiens, UniProt P42336)
Chain of Phosphatidylinositol 4,5-bisphosphate 3-kinase catalytic subunit alpha isoform (P42336 whole entry, canonical isoform): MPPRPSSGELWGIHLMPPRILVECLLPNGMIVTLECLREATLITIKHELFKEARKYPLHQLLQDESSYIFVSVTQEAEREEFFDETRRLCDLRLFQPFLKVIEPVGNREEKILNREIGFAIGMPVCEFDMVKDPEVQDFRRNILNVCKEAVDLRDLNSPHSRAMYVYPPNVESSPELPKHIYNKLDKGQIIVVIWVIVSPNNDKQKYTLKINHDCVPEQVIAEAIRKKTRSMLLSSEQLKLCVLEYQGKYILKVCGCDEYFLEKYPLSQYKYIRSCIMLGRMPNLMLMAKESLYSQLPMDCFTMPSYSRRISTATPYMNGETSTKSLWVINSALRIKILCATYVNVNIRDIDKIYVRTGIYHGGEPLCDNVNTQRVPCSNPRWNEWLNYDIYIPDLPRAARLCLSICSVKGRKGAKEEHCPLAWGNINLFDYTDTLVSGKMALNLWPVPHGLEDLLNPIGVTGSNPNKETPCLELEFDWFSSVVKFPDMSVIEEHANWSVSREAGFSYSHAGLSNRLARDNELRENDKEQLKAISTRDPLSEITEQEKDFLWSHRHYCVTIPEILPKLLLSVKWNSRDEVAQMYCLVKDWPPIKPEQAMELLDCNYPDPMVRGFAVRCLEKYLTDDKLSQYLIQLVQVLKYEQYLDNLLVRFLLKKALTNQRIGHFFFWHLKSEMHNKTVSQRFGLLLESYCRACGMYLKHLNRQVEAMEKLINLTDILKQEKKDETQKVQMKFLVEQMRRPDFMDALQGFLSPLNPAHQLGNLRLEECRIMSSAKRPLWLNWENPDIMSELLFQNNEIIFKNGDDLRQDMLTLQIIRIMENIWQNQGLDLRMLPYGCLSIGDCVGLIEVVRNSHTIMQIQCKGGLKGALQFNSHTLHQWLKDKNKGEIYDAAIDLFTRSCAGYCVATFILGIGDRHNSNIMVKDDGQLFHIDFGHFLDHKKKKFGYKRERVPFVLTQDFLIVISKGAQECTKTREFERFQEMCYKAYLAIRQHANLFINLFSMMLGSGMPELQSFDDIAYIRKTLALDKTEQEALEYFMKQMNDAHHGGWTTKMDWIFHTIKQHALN

Chain of Serine/threonine-protein kinase 10 (O94804 whole entry): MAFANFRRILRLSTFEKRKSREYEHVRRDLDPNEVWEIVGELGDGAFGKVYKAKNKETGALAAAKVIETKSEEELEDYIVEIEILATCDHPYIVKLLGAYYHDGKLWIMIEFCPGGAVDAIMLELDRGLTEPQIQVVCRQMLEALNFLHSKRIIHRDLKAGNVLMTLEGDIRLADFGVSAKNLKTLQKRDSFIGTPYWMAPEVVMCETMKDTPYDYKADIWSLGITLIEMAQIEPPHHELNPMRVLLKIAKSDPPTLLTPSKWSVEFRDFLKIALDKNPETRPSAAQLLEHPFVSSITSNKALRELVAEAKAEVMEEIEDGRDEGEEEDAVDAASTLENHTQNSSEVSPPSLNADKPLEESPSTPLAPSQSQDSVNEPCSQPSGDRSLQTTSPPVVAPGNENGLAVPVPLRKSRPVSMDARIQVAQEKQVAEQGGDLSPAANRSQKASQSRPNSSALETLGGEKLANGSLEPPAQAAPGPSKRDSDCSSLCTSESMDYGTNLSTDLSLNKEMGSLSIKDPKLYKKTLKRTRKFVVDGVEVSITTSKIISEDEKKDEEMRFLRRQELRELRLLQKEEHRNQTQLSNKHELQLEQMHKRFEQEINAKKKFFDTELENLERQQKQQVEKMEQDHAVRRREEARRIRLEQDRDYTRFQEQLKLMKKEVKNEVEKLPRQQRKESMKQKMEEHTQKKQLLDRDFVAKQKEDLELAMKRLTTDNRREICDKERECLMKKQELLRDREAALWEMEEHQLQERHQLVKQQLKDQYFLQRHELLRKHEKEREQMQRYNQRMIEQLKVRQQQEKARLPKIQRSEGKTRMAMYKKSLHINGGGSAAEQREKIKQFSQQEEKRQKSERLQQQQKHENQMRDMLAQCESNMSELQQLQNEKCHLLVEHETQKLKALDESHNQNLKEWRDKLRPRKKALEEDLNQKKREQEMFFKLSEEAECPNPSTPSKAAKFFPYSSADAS
Chain of Ephrin type-A receptor 7 (Q15375 whole entry): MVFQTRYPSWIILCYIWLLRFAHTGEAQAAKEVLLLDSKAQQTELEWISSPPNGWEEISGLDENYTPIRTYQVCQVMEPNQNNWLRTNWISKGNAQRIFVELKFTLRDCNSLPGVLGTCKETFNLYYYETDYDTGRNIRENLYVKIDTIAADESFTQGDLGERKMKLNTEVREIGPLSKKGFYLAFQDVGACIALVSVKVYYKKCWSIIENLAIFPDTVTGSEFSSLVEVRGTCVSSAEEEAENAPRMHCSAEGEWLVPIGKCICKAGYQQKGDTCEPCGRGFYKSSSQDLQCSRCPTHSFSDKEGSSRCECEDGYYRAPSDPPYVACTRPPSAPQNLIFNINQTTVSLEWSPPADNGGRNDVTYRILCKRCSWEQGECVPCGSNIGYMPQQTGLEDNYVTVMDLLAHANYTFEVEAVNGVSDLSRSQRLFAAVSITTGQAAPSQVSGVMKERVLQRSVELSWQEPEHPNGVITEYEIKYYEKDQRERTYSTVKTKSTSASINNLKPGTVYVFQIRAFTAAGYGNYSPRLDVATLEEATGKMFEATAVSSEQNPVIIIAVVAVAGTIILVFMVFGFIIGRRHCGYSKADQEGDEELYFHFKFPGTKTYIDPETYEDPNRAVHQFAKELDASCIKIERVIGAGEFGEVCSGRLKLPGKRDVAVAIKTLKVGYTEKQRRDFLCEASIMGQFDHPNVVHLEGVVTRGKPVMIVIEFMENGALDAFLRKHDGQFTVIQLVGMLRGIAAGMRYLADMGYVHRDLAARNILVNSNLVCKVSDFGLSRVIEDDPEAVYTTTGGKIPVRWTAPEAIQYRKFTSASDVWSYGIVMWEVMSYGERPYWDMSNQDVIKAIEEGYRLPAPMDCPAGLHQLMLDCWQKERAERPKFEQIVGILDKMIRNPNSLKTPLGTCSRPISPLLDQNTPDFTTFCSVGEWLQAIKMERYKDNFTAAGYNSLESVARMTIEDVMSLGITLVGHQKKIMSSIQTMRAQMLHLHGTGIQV
Chain of Mast/stem cell growth factor receptor Kit (P10721 26-976 V559D limits assumed): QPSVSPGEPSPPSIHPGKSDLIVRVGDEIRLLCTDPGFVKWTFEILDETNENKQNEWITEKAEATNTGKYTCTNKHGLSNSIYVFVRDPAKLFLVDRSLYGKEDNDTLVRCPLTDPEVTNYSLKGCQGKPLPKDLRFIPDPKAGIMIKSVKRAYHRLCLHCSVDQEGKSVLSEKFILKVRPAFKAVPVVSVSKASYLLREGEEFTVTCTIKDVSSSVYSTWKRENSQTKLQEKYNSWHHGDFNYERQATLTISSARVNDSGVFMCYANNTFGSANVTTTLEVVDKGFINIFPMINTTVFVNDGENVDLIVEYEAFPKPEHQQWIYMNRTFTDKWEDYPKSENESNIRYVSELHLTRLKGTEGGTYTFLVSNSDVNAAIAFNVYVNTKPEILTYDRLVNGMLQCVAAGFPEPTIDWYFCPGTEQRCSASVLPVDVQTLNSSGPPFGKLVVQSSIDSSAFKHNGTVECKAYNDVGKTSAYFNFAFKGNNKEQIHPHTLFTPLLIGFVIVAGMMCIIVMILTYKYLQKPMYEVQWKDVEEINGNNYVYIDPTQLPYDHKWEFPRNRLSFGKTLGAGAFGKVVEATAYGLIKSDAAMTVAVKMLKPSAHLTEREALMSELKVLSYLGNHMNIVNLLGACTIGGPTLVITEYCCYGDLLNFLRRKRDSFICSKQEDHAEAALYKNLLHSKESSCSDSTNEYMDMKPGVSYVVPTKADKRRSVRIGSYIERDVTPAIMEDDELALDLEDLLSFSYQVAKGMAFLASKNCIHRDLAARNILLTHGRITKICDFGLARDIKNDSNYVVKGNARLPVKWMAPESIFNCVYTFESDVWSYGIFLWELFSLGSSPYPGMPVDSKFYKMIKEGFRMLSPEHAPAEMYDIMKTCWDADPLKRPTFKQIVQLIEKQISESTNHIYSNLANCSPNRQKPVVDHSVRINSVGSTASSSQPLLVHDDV
Chain of SRSF protein kinase 2 (P78362 whole entry): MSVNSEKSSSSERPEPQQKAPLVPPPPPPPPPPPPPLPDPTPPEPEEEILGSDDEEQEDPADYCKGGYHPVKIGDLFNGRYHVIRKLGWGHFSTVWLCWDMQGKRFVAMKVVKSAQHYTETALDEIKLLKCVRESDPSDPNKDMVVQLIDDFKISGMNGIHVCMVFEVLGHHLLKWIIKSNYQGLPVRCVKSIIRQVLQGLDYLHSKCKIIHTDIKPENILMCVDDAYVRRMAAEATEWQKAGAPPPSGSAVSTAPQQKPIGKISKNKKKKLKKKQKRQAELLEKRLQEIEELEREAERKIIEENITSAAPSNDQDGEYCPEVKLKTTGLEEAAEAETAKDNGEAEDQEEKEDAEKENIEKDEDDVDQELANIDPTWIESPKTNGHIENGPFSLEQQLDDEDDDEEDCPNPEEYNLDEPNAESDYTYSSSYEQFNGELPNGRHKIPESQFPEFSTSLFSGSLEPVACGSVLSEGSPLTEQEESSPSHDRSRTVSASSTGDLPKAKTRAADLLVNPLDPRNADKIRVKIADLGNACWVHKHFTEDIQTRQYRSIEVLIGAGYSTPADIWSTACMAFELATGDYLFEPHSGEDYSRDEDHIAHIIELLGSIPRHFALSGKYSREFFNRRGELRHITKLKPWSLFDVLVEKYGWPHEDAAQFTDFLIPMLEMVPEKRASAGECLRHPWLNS
Chain of Glycogen synthase kinase-3 beta (P49841 whole entry): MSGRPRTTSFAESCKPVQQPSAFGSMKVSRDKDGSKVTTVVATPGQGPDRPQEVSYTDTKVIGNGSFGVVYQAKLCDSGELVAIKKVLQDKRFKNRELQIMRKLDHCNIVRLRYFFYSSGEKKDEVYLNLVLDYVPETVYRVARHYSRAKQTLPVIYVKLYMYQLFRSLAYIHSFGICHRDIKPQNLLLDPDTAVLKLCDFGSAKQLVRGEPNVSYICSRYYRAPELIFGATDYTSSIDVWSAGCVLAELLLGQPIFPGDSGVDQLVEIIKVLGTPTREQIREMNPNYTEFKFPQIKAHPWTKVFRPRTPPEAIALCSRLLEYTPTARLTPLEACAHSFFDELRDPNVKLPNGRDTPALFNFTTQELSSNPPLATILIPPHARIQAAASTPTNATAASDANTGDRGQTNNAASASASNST

| Structure (SMILES) | Kd [1] [µM] | Kd [2] [µM] | Kd [3] [µM] | Kd [4] [µM] | Kd [5] [µM] | Kd [6] [µM] | Kd [7] [µM] | Kd (Ephrin type-A receptor 7) [µM] | Kd (SRSF protein kinase 2) [µM] | Kd [8] [µM] | Kd [9] [µM] |
| --- | --- | --- | --- | --- | --- | --- | --- | --- | --- | --- | --- |
| COCC(=O)NC/C=C/c1ccc2ncnc(Nc3ccc(Oc4ccc(C)nc4)c(C)c3)c2c1 [CP-724714] | > 10 | > 10 | > 10 | > 10 | > 10 | > 10 | > 10 | > 10 | > 10 | > 10 |  |
| NC(=O)c1ccc(-c2nc(-c3ccc4c(c3)OCO4)c(-c3ccccn3)[nH]2)cc1 [SB-431542] | > 10 | > 10 | > 10 | > 10 | > 10 | > 10 | > 10 | > 10 | > 10 | > 10 | > 10 |
| Nc1nc(Nc2ccc(S(N)(=O)=O)cc2)nn1C(=O)c1c(F)cccc1F [JNJ-7706621] |  |  | > 10 |  |  |  | > 10 | 3.1 | > 10 |  | > 10 |
| CCOc1cc2ncc(C#N)c(Nc3ccc(F)c(Cl)c3)c2cc1NC(=O)/C=C/CN(C)C [PELITINIB] | > 10 | > 10 |  | > 10 |  | > 10 | > 10 | > 10 | > 10 | 1.9 | > 10 |
| Oc1ccc(-c2nc(-c3ccncc3)c(-c3ccc(F)cc3)[nH]2)cc1 [SB-202190] | 2.7 | > 10 | > 10 | > 10 | > 10 | > 10 | > 10 | > 10 | > 10 | > 10 | > 10 |
